# Data from article PMC6150172, “Synthesis of Oxadiazole-Thiadiazole Hybrids and Their Anticandidal Activity” (Molecules : A Journal of Synthetic Chemistry and Natural …, 2017).
# Tests used:
# C. albicans (ATCC 24433) = assay: Antifungal broth microdilution assay (EUCAST EDef 7.1), C. albicans; assay type: cell-based; details: Candida albicans, ATCC24433, read-out: Minimum inhibitory concentration (MIC50)
# Experimental: (§1) The anticandidal effect of compounds 6a–6s were screened in accord with the EUCAST definitive (EDef 7.1) method. Ketoconazole was employed as a reference drug. The in vitro growth inhibitory activity of the compounds were tested against C. albicans (ATCC 24433), C. glabrata (ATCC 90030), C. krusei (ATCC 6258) and C. parapsilosis (ATCC 22019). The results were obtained as MIC values and MIC readings were accomplished twice for each chemical agent. After incubating overnight at 37 °C, the fungal strains were sustained in Roswell Park Memorial Institute (RPMI) medium.
# (§2) Adjustment of the inoculum density to a 0.5 McFarland turbidity standard was carried out by using a spectrophotometer. The resulting inoculum suspension contained 0.5 × 10^5–2.5 × 10^5 cfu/mL for fungi. The two-fold serial dilutions technique were applied and the test was carried out in Mueller–Hinton broth and RPMI at pH7 and the test was performed for medium at pH7. The last well on the microplates containing only inoculated broth and the last well with no growth of microorganism represent controls and the MIC50 in μg/mL, respectively. DMSO was used as solvent. Further dilutions of the compounds and standard drugs in the RPMI medium were prepared in the required quantities at contcentrations of 800, 400, 200, 100, 50, 25, 12.5, 6.25, 3.125, 1.5625 and 0.78 µg/mL. After a 24 h incubation of the completed plates, resazurin (20 µg/mL) was added into each well in order to observe the fungal growth. […] Each experiment in antifungal assay was performed twice.
# four Candida species = assay: Antifungal broth microdilution assay, four Candida species taken together; assay type: cell-based; details: range over four Candida strains
# Experimental: as §1, §2
# C. glabrata (ATCC 90030) = assay: Antifungal broth microdilution assay (EUCAST EDef 7.1), C. glabrata; assay type: cell-based; details: Nakaseomyces glabratus, ATCC90030, read-out: Minimum inhibitory concentration (MIC50)
# Experimental: as §1, §2
# C. krusei (ATCC 6258) = assay: Antifungal broth microdilution assay (EUCAST EDef 7.1), C. krusei; assay type: cell-based; details: Pichia kudriavzevii, ATCC6258, read-out: Minimum inhibitory concentration (MIC50)
# Experimental: as §1, §2
# MTT cytotoxicity test = assay type: cell-based; details: mouse, NIH/3T3 mouse embryonic fibroblast cells, NIH/3T3 cell line, read-out: IC50 (cytotoxic activity)
# Experimental: The MTT assay was carried out to determine the cytotoxicity of the synthesized compounds as previously reported in [21]. NIH/3T3 mouse embryonic fibroblast cells (ATCC® CRL-1658™, London, UK) were incubated according to the supplier’s references and seeded at 1 × 10^4 cells into each well of 96-well plates. After this process, cells were treated with the compounds at concentrations ranging from 800 µg/mL to 0.78 µg/mL. By means of the following formula, percent inhibition was evaluated for each concentration.
# [1] = test system: ergosterol biosynthesis in C. krusei; assay: Ergosterol level quantification by LC-MS-MS in C. krusei; assay type: cell-based; details: Pichia kudriavzevii, mean ± SD
# Experimental: The ergosterol level was determined using the method described by Breivik and Owades with adjustments according to [2]. C. krusei was inoculated with Sabouraud dextrose broth (Difco) supplemented with compounds 6e, 6k, 6r and the positive control, ketoconazole. The cultures were incubated, and the stationary-phase cells were harvested. After the addition of 25% alcoholic potassium hydroxide solution, cell suspensions were separated and incubated. Sterols were extracted by sterile distilled water and chloroform, and then the extract was injected into the LC-MS-MS system (Shimadzu LCMS 8040, Kyoto, Japan). The ergosterol quantity in the negative control samples was considered as 100%. All concentrations were analysed in quadruplicate, and the results were presented as mean ± standard deviation (SD).
# [2] = test system: C. parapsilosis (ATCC 22019); assay: Antifungal broth microdilution assay (EUCAST EDef 7.1), C. parapsilosis; assay type: cell-based; details: Lodderomyces parapsilosis, ATCC22019; C. parapsilopsis; read-out: Minimum inhibitory concentration (MIC50)
# Experimental: as §1, §2
SMILES,melting point [°C],MIC50 (C. albicans (ATCC 24433)) [µg/mL],"minimum inhibitory concentration (MIC), range over all tested fungi (four Candida species) [µg/mL]",MIC50 (C. glabrata (ATCC 90030)) [µg/mL],MIC50 (C. krusei (ATCC 6258)) [µg/mL],IC50 (MTT cytotoxicity test) [µg/mL],inhibition at 0.78 µg/mL [1] [%],inhibition at 1.56 µg/mL [1] [%],inhibition at 3.12 µg/mL [1] [%],MIC50 [2] [µg/mL]
"O=C(CSc1nnc(CCSc2nnc(NC3CCCCC3)s2)o1)Nc1ccc([N+](=O)[O-])cc1 [Compound 6k, 2-[[5-[2-[[5-(Cyclohexylamino)-1,3,4-thiadiazol-2-yl]thio]ethyl]-1,3,4-oxadiazol-2-yl]thio]-N-(4-nitrophenyl)acetamide]",149,1.56,0.78 to 3.12,1.56,1.56,> 500,58.7 ± 2.41,74.7 ± 3.26,81.3 ± 4.19,1.56
"O=C(CSc1nnc(CCSc2nnc(NC3CCCCC3)s2)o1)c1ccc([N+](=O)[O-])cc1 [Compound 6e, 2-[[5-[2-[[5-(Cyclohexylamino)-1,3,4-thiadiazol-2-yl]thio]ethyl]-1,3,4-oxadiazol-2-yl]thio]-1-(4-nitrophenyl)ethan-1-one]",144,1.56,0.78 to 3.12,1.56,0.78,> 500,76.5 ± 3.67,82.9 ± 4.72,88.6 ± 4.52,0.78
"O=C(CSc1nnc(CCSc2nnc(NC3CCCCC3)s2)o1)Nc1nc2ccc([N+](=O)[O-])cc2s1 [Compound 6r, 2-[[5-[2-[[5-(Cyclohexylamino)-1,3,4-thiadiazol-2-yl]thio]ethyl]-1,3,4-oxadiazol-2-yl]thio]-N-(6-nitrobenzothiazol-2-yl)acetamide]",,3.12,0.78 to 3.12,3.12,1.56,406 ± 9.36,61.4 ± 1.88,70.6 ± 4.23,80.2 ± 3.7,1.56
